Experiments:
MDA-MB-231 tumors = experiment: Comparison of three rescue reagents (Example 32)
Protocol: To evaluate whether mice with FITC-CAR-T therapy related sCRS can be rescued by using competitors which may displace EC17 from either FITC-CAR-T or FR+ tumor cells, 49 NSG mice bearing MDA-MB-231 tumors (150-250 mm3) were administered with excess FITC-CAR-T cells (8 million), 36 of them were then dosed with 500 nmol/kg EC17 48 hours post CAR-T administration, 6 of them were not dosed with EC17 and were used as “No EC17” control, and 7 of them were dosed with 260 umol/kg sodium fluorescein (no EC17 but Fluorescein) to test its toxicity. […] Each group was i.v. injected with 10 umol/kg of Leucovorin, or 10 umol/kg folic acid, or 260 umol/kg sodium fluorescein, or nothing as an un-rescued control. […] Mouse body weight changes were also monitored as the indication of toxicity. […] To evaluate whether the rescue injections affect the anti-tumor activity of FITC-CAR-T cells, these mice were dosed with 500 nmol/kg EC17 twice per week (days 9, 11, 15, 18, 22, 25, etc.) and the tumor size was monitored.

[1] = tested on: MDA-MB-231 solid tumor xenografts; experiment: Control of CAR T cell activation in vivo: break, FA competitor or both (Example 19); conditions: 15×10^6 CAR T cells + FITC-Folate 500 nmole/kg every other day
Protocol: Five study groups were designed to test whether anti-FITC CAR T cell activation can be controlled via temporal termination of FITC-ligands, by administering a competitor small molecule, or a combination approach of both discontinuing of FITC-ligands and/or administering an FA competitor. The first group was treated by administering anti-FITC CAR T cell with phosphate-buffered saline (PBS) as a negative control. Every other day over the course of the study, the second, third, fourth and fifth groups were treated with anti-FITC CAR T cell mixed with FITC-Folate (500 nmole/kg). […] Mouse bodyweight was measured regularly to test for toxicity.

MDA-MB-231 = experiment: FITC-Folate dose escalation study in vivo (Example 20)
Protocol: To test whether gradual escalation of FITC-Folate dose can minimize CART cell mediated toxicity without compromising anti-tumor efficacy of CAR T cells, an experiment was designed. A dose of FITC-Folate (0.05 nmole/kg) was introduced first into NSG mice bearing MDA-MB-231 (tumor volume about 50-100 mm^3) along with anti-FITC CAR T cell injections (using about 15×10^6 cells). An additional two doses of about 0.05 nmole/kg FITC-Folate was administered to the mice. […] After a gradual increase of FITC-Folate dose, mice were treated with a 500 nmole/kg dose of FITC-Folate. […] General toxicity of each treatment group was monitored by measuring body weight loss. Tumor volume was measured to monitor anti-FITC CAR T cells' anti-tumor efficacy.

FR+ HEK-FRa xenografts = experiment: FITC-CAR-T proliferation in HEK-FRa s.c. xenograft model (Example 37); format: in vivo, mice; conditions: 500 nmol/kg three times per week
Protocol: The evaluation of FITC-CAR-T proliferation and related toxicity in both naïve mice and mice bearing FR+ tumor xenografts was tested. To evaluate whether FITC-CAR-T proliferation in vivo is dependent on the co-existence of the bridge (e.g. EC17) and the tumor antigen (e.g. folate receptor), FITC-CAR-T proliferation in vivo was compared in naïve mice and mice bearing FR+ tumor xenografts, either with or without EC17. 5-8 million CAR-T cells (as indicated in FIGS. 42 and 43) were administered (i.v.) into naïve mice without tumors and mice bearing FR+ tumor xenografts (80-200 mm3). 500 nmol/kg EC17 was dosed 4 hours before and three times per week post CAR-T administration, if desired. Mice were monitored for body weight changes and CAR-T cell count in blood circulation; some mice were also euthanized weekly to evaluate organs. […] CAR-T cell count in blood samples was also compared to evaluate CAR-T proliferation. […] Since the enlargement of spleen size is another indicator for CAR-T proliferation in vivo, spleen size was also measured as shown in FIG. 43B.
For FIG. 42, the MDA-MB-231 s.c. model was used. For FIG. 43A, the HEK-FRa s.c. xenograft model was used. For FIG. 43B, the MDA-MB-231 s.c. model was used.

[2] = tested on: anti-fluorescein scFv on CAR T cells; experiment: Competitive binding assay against FITC-Alexa647 on CAR T cells; conditions: 1 μM competing ligand versus FITC-Alexa647 10 nM
Protocol: To examine the ability of bridge molecules to bind anti-fluorescein scFv on CAR T cells, a competitive binding assay was developed. Measurement of the fluorescein signal from CAR T cell bound bridges could not be used due to the overlap of its fluorescence with that of the GFP expressing CAR T cells. For this purpose, FITC-Alexa647 (10 nM) was allowed to bind anti-fluorescein CAR T cells in the absence or presence of excess (1 μM) competing ligand (i.e. FITC-folate, FITC-DUPA, FITC-CA9) for 1 h at room temperature. After incubation, anti-fluorescein CAR T cells were washed 3× with PBS to remove unbounded FITC-Alexa647, and the washed cells were analyzed for Alexa647 fluorescence by flow cytometry.
Fluorescein-folate (FITC-folate) and fluorescein-PSMA (FITC-DUPA) were synthesized as previously described. To examine the ability of these bridge molecules to bind anti-fluorescein scFv on CAR T cells, a competitive binding assay had to be developed, because measurement of the fluorescein signal from CAR T cell bound bridge could not be used due to the overlap of its fluorescence with that of the GFP expressing CAR T cells. For this purpose, FITC-Alexa647 (10 nM) was allowed to bind anti-fluorescein CAR T cells in the absence or presence of excess (1 μM) competing ligand (i.e. FITC-folate) for 1 h at room temperature. After incubation, anti-fluorescein CAR T cells were washed 3× with PBS to remove unbounded FITC-Alexa647, and the washed cells were analyzed for Alexa647 fluorescence by flow cytometry. For analysis of FITC-folate to binding to folate receptor, FR positive KB cells were incubated with FITC-folate (100 nM) in the absence or presence of excess (10 μM) free folate (i.e. as a competitive ligand). After washing samples with PBS (3 times), samples were analyzed by flow cytometry for fluorescein-folate binding.

HOS-FRα = experiment: EC17-controlled anti-FITC CAR T-cell therapy in osteosarcoma model (Example 47); format: in vivo, NSG mice
Text: HOS-FRα cells were implanted subcutaneously with 5×10^5 per animal in 6 animals.
[…] One animal in the EC17-treated group received two more doses of EC17 at 50 and 100 nmol/kg on Days 40 and 42. All EC17 doses were given towards the end of the day (˜3-4 PM) to allow cytokine release syndrome (CRS) to develop overnight. Sodium fluorescein rescue was done as needed at 0.6 μmol/kg. Only the last EC17-dosed animal received sodium fluorescein on day 47.

O=C([O-])c1ccccc1-c1c2ccc(=O)cc-2oc2cc([O-])ccc12.[Na+].[Na+] [sodium fluorescein]
body weight loss compared to other rescue groups (MDA-MB-231 tumors; 260 umol/kg): least body weight loss
order of sCRS severity (from worst to least) (MDA-MB-231 tumors; 10 hours after rescue, Leucovorin 10, folic acid 10, sodium fluorescein 260 umol/kg): no rescue group>leucovorin rescue group>folic acid rescue group>sodium fluorescein rescue group>no EC17 group
mice with a tiny tumor left (MDA-MB-231 tumors; day 36 post CAR T injection): 2 out of 9

Nc1nc2ncc(CNc3ccc(C(=O)NC(CCC(=O)NCCNC(=S)Nc4ccc(-c5c6ccc(=O)cc-6oc6cc(O)ccc56)c(C(=O)O)c4)C(=O)O)cc3)nc2c(=O)[nH]1 (centres unmarked) [EC17, FITC-Folate]
weight loss (serious CAR T cell mediated toxicity) [1]: > 10%
effect on CAR T cells' anti-tumor efficacy (MDA-MB-231; gradual escalation): did not negatively affect
toxicity (MDA-MB-231; gradual escalation 0.05 to 500 nmole/kg, 15×10^6 CAR T cells): no serious toxicity
FITC-CAR-T proliferation (FR+ HEK-FRa xenografts): rapid proliferation
binding to CAR-expressing T cells [2]: able to bind to the CAR-expressing T cells
binding to CAR-expressing T cells ([2]; listed as fluorescein-folate): competitively block FITC-Alexa 647 binding
tumor volume (HOS-FRα; 500 nmol/kg SIW, 10.5 million CAR T-cells): started to shrink on Days 28 and 33
CRS (HOS-FRα; once tumors reached >200 mm^3): CRS was severe

From patent US11759480B2, “Compositions and methods for CAR T cell therapy” (ENDOCYTE, INC., priority 2017, dated 2023)
